From US6613797B2, “Xanthone analogs for treating infectious diseases and complexation of heme and porphyrins” (Interlab, Inc., priority 1999, dated 2003) come the findings set out here.

Molecules are shown by their SMILES. Converted amounts (≈) assume the structure as drawn. Like-named read-outs stand apart in the source and are kept apart here.

Assay [1] relates to Plasmodium falciparum D6 strain. The assay can be described thus: in vitro anti-malarial activity, [3H]-ethanolamine incorporation method. It is filed as cell-based. The procedure: Cultures were maintained at 37° C. in a gas mixture of 5% oxygen, 5% CO2, and 90% nitrogen.
[^3H]-ethanolamine was obtained from American Radiolabeled Chemicals, Inc., St. Louis, Mo. Experiments were conducted in 96 well plates in a total volume of 200 μl at a final red blood cell concentration of 2% (v/v). An initial parasitemia of 0.2 to 0.5% was attained by addition of normal uninfected red cells. Radiolabeled ethanolamine was added after 48 hours of incubation and the experiment was terminated after 72 hours by collecting the cells onto glass fiber filters with an automated multiwell harvester.
Stock solutions of the various Formula X1 compounds were dissolved in DMSO at a concentration of 1 mM and diluted in complete medium (including 10% human serum) to provide 10X stock concentrations in the range of 1 to 10,000 nM.

The nature of assay [2]: in vitro heme aggregation (polymerization) assay. It is filed as biochemical. As to conditions: for inhibitory activity in heme polymerization assay: result in words. Here is the method:
Heme polymerization was carried out in 0.02 M phosphate buffer, pH 5.2 at 37° C. in the absence of protenis. A 10 mM stock solution of hemin chloride in 0.1 M NaOH wa prepared freshly and incuated at 37° C. for at least 1 hour to effect complete dissolution. Xanthones were dissolved in dimethylformamide at 10 mM and diluted into 10 ml of pre-warmed phosphate solution to a final concentraion of 25 μm. […] 25 μl of dimethylformaide wa added to the control smample. After 7, 30, 60, 120 and 190 minutes of incugation at 37° C., a 1 ml aliquot was withdraqwn, tranferred into an Eppendorf tube, and centrifugted at 14,000 g for 2 minutes at room temperature to pellet the precipitate. The soluble fraction was then transferred to a semi-microcuvette (polymethyacrylate, VER), and its absoprtion was measured at 360 nm against a blank of the test compound in buffer.
The reactions were allowed to proceed for 2 hours in a 37° C. waterbath. After incubation, the polymer was pelleted as described above and the absorption (360 nm) of each soluble fraction was measured against a blank containing the drug alone in buffer. The IC50 values were determined by nonlinear regression analysis of the dose-response curves of percent inhibition of heme polymerization vs. drug concentration.

For assay [3], the system named is Candida albicans. Nature of the assay: anti-Candida activity, MIC by visual inspection. It is filed as cell-based. As to conditions: conversion of the MIC, read-out: IC50 corresponding to the MIC against Candida albicans. Here is the method:
The minimum inhibitory concentration (MIC) of formula X1 compounds against a clinical isolate of Candida albicans was determined using the following method. […] The determination of this concentration is made by visual inspection; there is no visible growth in a tube containing the MIC of the formula X1 compound whereas visible growth is present in tubes containing sub-MIC concentrations of the compound.
Candida albicans was grown to midlog-phase in Luria-Bertani broth (10 grams Bacto-tryptone, 5 grams Bacto-yeast extract and 10 grams NaCl per liter) and then inoculated into sterile test tubes containing LB broth to an initial density of 10^3/ml. The formula X1 compound to be tested is dissolved in dimethylsulfoxide (DMSO) at a concentration of 1 mM and added to each tube at serial dilutions (1 μM, 10 μM, 25 μM, 50 μM, 100 μM and 0 μM). The tubes are incubated at 35° C. for 15-18 hours and then visually inspected.

In assay [4] the test system is P. falciparum W2 strain. The assay can be described thus: antimalarial activity against multidrug resistant W2 strain. Format: cell-based, Plasmodium falciparum. Here is the method: A decision was made to retain the oxygen atom (a conjugatively electron-donating species) as a bridge for an R-group containing the protonatable nitrogen. […] For comparative purposes, the straight-chain di-substituted series from C2 to C8 (i.e., excepting C7), each with a terminal diethylamino group was prepared. Shown in Table 4 is the remarkable relationship between chain length and antimalarial activity within the series . . . and the extraordinary potency of the C5 (3,6-bis-ω-diethylaminoamyloxyxanthone) and C6 (3,6-bis-ω-diethylaminohexyloxyxanthone) congeners.

Assay [5] relates to intracellular amastigotes of Leishmania mexicana M379. The assay can be described thus: intracellular amastigote assay in infected murine macrophages. Format: cell-based. Here is the method:
Bone-marrow-derived macrophages (BALB/c) were cultured with L-cell-conditioned medium for 5-7 days at 35° C. After this period of incubation, mature macrophages were transferred to Labtek 4-chamber slides containing DMEM (Dulbecco's Modified Eagle's Medium) and 10% fetal calf serum. 50,000 cells were seeded in each chamber and allowed to attach overnight at 37° C. in a humidified incubator flushed with 5% CO2. On the next day the macrophages were infected at an MOI (Multiplicity of Infection) of 10:1 with stationary promastigotes of L. mexicana. After twenty-four hours, the medium was removed and fresh medium was added containing various drug concentrations (0-5 μM). Following incubation for an additional forty-eight hours, one set of slides were fixed in methanol, dried, and stained with Giemsa stain. Fresh medium and drug were added to a parallel set of chamber slides and incubated for another 48 hours before staining. […] Microscopic inspection permitted determination of % of infected macrophages and the number of amastigotes per 100 macrophages. The IC50 value is that concentration of drug that reduces the amastigote number by 50% relative to drug-free controls. Results also were obtained in parallel fashion with macrophages.
Intracellular amastigote studies. […] Because the amastigote stage is the only relevant clinical form of the parasites, we examined the activity of the nitrogenated xanthones against the heme-auxotrophic, intracellular amastigote form of L. mexicana. Stationary promastigotes of L. mexicana M379 rapidly invaded murine peritoneal macrophages obtained from BALB/c mice and incubated at 35° C. producing heavily burdened cells with 10 to 50 amastigotes per macrophage within 24 hours. An experiment was performed to investigate the ability of selected xanthones to reduce the number of intracellular amastigotes using this model. The IC50 value is that concentration of drug required to reduce the intracellular parasite burden by 50% relative to a drug-free control chamber. We tested the xanthone series against amastigote-infected murine peritoneal macrophages. Macrophages were seeded into Labtek chamber slides (25,000 per well/8 chamber slide) and allowed to incubate overnight in Dulbecco's Modified Eagle Medium (DMEM) supplemental with 10% fetal calf serum. On the next day the cells were infected with L. mexicana promastigotes at an MOI of 5:1 and then incubated for 24 hours at 35° C. After incubation, the monolayers were washed with buffer and medium containing varying concentrations of each xanthone (0 to 10 μM) was added to each chamber. After 48 hours of incubation (i.e., Day 3 of the experiment) one set of slides was removed, fixed with methanol, and stained with Giemsa. For another set of slides, we replenished the culture medium, added fresh drug to each well as appropriate, and then incubated the chambers for another 48 hours before staining with Giemsa. IC50 values were then averaged for 3 separate experiments and the results are presented in Table 4 and graphically in FIG. 7. […] The IC50 values recorded for C5 and C6 exposure for 96 hours of treatment were 6 nM and 2 nM.

Where [6] appears, read: Plasmodium falciparum, D6, Table 3, read-out: IC50 μM, P. falciparum clone D6.
The mark [7] stands for this setting: Table 3, 25 μM heme, pH 5.2, 37° C., 2 hours, average of at least two determinations, read-out: IC50, μM in vitro heme polymerization.
[8] abbreviates: Plasmodium falciparum, D6, read-out: IC50 μM, P. falciparum clone D6.
Setting [9] is: Plasmodium falciparum, D6, Table 4, average of 2 experiments in triplicate, 72 hour assay, read-out: IC50 μM* P. falciparum D6.
[10] abbreviates: P. falciparum D6, read-out: IC50, anti-malarial activity.
Where [11] appears, read: Table 4, average of 2 experiments in triplicate, 72 hour assay, read-out: IC50 μM* P. falciparum D6.
Setting [12] is: 96 hours of treatment, peritoneal macrophages, read-out: IC50, L. mexicana amastigotes.
Where [13] appears, read: Table 4, 48 hours of drug exposure, reduction of amastigote burden by 50%, read-out: IC50 μM** L. mexicana.
The mark [14] stands for this setting: Leishmania mexicana, Macrophage, 48 h, read-out: IC50 μM** L. mexicana.

For `CCN(CC)CCCCCOc1cccc2c(=O)c3cccc(OCCCCCN(CC)CC)c3oc12`, in assay [1] (Plasmodium falciparum, D6, Table 4, cells printed in nM, 72 hour assay, read-out: IC50 μM* P. falciparum D6), the IC50 was 575 nM.

For `O=c1c2cc(O)c(O)c(O)c2oc2cc(O)cc(O)c12` [1,3,5,6,7-pentahydroxyxanthone], the figures for the 50% inhibitory concentration (IC50) in assay [1] (setting [6]) and in assay [2] (setting [7]) were 1000 nM and 9 µM, respectively.

Take `O=c1c2ccccc2oc2cc(O)cc(O)c12` [1,3-dihydroxyxanthone]: the IC50 is 75000 nM in assay [1] (setting [6]) and over 1000 µM in assay [2] (setting [7]).

As to `O=c1c2cc(O)c(O)c(O)c2oc2c(O)c(O)c(O)cc12` [2,3,4,5,6,7-hexahydroxyxanthone], the IC50 in assay [3] is about 10 mg/L (≈ 34.2 µM); in assay [1] (setting [6]), 100 nM; in assay [2] (setting [7]) it was 1.4 µM.

On to `CC(=O)Oc1cc2c(=O)c3ccc(OC(C)=O)c(OC(C)=O)c3oc2c(OC(C)=O)c1OC(C)=O` [2,3,4,5,6-pentaacetoxyxanthone], for which the IC50 in assay [1] (setting [6]) is 75 nM; in assay [2] (setting [7]), over 1000 µM. The “inhibitory activity in heme polymerization assay” value (“inhibitory activity” below) in assay [2] was “inactive”.

Regarding `COc1cc2c(=O)c3ccc(OC)c(OC)c3oc2c(OC)c1OC` [2,3,4,5,6-pentamethoxyxanthone], the figures for the IC50 in assay [1] (setting [6]) and in assay [2] (setting [7]) were over 100000 nM and over 1000 µM, respectively. Moreover, the “inhibitory activity” value in assay [2] is “inactive”.

For `O=c1c2ccccc2oc2c(O)c(O)c(O)cc12` [2,3,4-trihydroxyxanthone], the concentration for half-maximal inhibition (IC50) in assay [1] (setting [6]) is 40000 nM; in assay [2] (setting [7]), 17 µM; in assay [2] (text b143, read-out: IC50, inhibition of heme polymerization) it was 16.5 µM.

As to `O=c1c2ccccc2oc2ccc(O)cc12` [2-hydroxyxanthone], the IC50 was 50000 nM in assay [1] (setting [8]) and over 1000 µM in assay [2] (setting [7]).

As for `O=c1c2ccc(O)c(O)c2oc2c(O)c(O)ccc12` [3,4,5,6-tetrahydroxyxanthone], the figures for the half-maximal inhibitory concentration (IC50) in assay [1] (setting [6]) and in assay [2] (setting [7]) were 5000 nM and 2.5 µM, respectively.

Consider `O=c1c2ccc(O)cc2oc2cc(O)ccc12` [3,6-dihydroxyxanthone], for which the values for the IC50 in assay [1] (setting [8]) and in assay [2] (setting [7]) were over 100000 nM and over 500 µM, respectively.

Regarding `CCN(CC)CCCCCOc1ccc2c(=O)c3ccccc3oc2c1` [3-(N,N-diethylamino)amyloxy-xanthone], the IC50 in assay [1] (setting [9]) turned out to be 2500 nM.

For the compound `O=c1c2ccccc2oc2cc(O)ccc12` [3-hydroxyxanthone], the half-inhibitory concentration (IC50) was over 100000 nM in assay [1] (setting [8]) and over 1000 µM in assay [2] (setting [7]).

With `O=c1c2cccc(O)c2oc2c(O)cccc12` [4,5-dihydroxyxanthone], the values for the IC50 in assay [1] (setting [6]) and in assay [2] (setting [7]) were 16000 nM and 14 µM, respectively.

On to `CCN(CC)CCCCCOc1ccc2c(=O)c3ccc(OCCCCCN(CC)CC)cc3oc2c1` [36-DEAAmyl-X, 3,6-bis-ε-(N,N-diethylamino)-amyloxy-xanthone], for which the “degree of potency against W2 compared with D6” value in assay [4] was “the same”. The IC50 in assay [1] (setting [10]) is about 100 nM; in assay [1] (setting [11]), 100 nM; in assay [5] (setting [12]), 0.006 µM; in assay [5] (setting [13]), 0.06 µM.

As for `CCN(CC)CCCCOc1ccc2c(=O)c3ccc(OCCCCN(CC)CC)cc3oc2c1` [36-DEAB-X, 3,6-bis-δ-(N,N-diethylamino)butoxy-xanthone], the IC50 is 650 nM in assay [1] (setting [9]) and 0.2 µM in assay [5] (setting [14]).

On to `CCN(CC)CCOc1ccc2c(=O)c3ccc(OCCN(CC)CC)cc3oc2c1` [36-DEAE-X, 3,6-bis-β-(N,N-diethylamino)ethoxy-xanthone], for which the IC50 in assay [1] (setting [9]) is 2200 nM; in assay [5] (setting [14]), about 1.25 µM.

Regarding `CCN(CC)CCCCCCOc1ccc2c(=O)c3ccc(OCCCCCCN(CC)CC)cc3oc2c1` [36-DEAHexyl-X, 3,6-bis-(N,N-diethylamino)-hexyloxy-xanthone], the “degree of potency against W2 compared with D6” value in assay [4] is recorded as “the same”. Besides, the IC50 was about 100 nM in assay [1] (setting [10]), 75 nM in assay [1] (setting [11]), 0.002 µM in assay [5] (setting [12]) and 0.02 µM in assay [5] (setting [13]).

For `CCN(CC)CCCCCCCCOc1ccc2c(=O)c3ccc(OCCCCCCCCN(CC)CC)cc3oc2c1` [36-DEAOctyloxy-X, 3,6-bis-(N,N-diethylamino)octyloxy-xanthone], in assay [1] (setting [11]), the IC50 is 430 nM.

Regarding `CCN(CC)CCCOc1ccc2c(=O)c3ccc(OCCCN(CC)CC)cc3oc2c1` [36-DEAP-X, 3,6-bis-γ-(N,N-diethylamino)propoxy-xanthone], the half-inhibitory concentration (IC50) worked out at 1500 nM in assay [1] (setting [9]) and 0.5 µM in assay [5] (setting [14]).

In the case of `CCN(CC)c1ccc2c(=O)c3ccc(N(CC)CC)cc3oc2c1` [36-DEAX, 3,6-bis-N,N-diethylamino-xanthone], the IC50 was 20000 nM in assay [1] (setting [9]) and about 20000 nM in assay [1] (Plasmodium falciparum, P. falciparum D6, read-out: IC50, anti-malarial activity).

Turning to `CCN(CC)CCOc1cccc2c(=O)c3cccc(OCCN(CC)CC)c3oc12` [45-DEAE-X, 4,5-bis-β-(N,N-diethylamino)ethoxy-xanthone], the 50% inhibitory concentration (IC50) in assay [1] (setting [9]) amounted to 2800 nM.

As for `CCN(CC)CCCC(C)Nc1ccnc2cc(Cl)ccc12` (stereo not drawn) [Chloroquine, reference compound], the IC50 in assay [1] (Plasmodium falciparum, D6, read-out: IC50, anti-malarial activity) is about 40 nM.

Take `O=c1c2ccccc2oc2ccccc12` [Xanthone]: the half-maximal inhibitory concentration (IC50) in assay [1] (Plasmodium falciparum, D6, read-out: IC50, μM vs. Plasmodium) was over 10000 nM. The “inhibitory activity” value in assay [2] was “did not exhibit any inhibitory activity”.

What is called IC50 is the midpoint of a concentration-inhibition curve.
